What follows are molecules tested against T1, Human complement C1s enzyme (Homo sapiens, UniProt P09871) (assay: Human C1s Enzyme Assay). Conditions: human C1s 1.16 nM, 5 min preincubation, substrate Z-L-Lys-SBzl 100 μM, A405; read-out: C1s Protease Activity.
T1 construct: purified from human serum, Complement Technology, Inc; purchased Complement Technology, Inc; host or cells: human serum
T1 sequence (P09871 438-688 limits assumed): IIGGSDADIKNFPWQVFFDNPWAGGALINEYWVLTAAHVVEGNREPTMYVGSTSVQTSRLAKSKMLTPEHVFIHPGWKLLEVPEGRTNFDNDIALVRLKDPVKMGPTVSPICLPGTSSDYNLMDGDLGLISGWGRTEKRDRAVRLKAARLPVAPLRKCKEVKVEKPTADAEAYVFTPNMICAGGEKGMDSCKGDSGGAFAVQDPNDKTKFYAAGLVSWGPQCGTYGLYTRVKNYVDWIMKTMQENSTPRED
T1 sequence (P09871 16-437 partner limits assumed): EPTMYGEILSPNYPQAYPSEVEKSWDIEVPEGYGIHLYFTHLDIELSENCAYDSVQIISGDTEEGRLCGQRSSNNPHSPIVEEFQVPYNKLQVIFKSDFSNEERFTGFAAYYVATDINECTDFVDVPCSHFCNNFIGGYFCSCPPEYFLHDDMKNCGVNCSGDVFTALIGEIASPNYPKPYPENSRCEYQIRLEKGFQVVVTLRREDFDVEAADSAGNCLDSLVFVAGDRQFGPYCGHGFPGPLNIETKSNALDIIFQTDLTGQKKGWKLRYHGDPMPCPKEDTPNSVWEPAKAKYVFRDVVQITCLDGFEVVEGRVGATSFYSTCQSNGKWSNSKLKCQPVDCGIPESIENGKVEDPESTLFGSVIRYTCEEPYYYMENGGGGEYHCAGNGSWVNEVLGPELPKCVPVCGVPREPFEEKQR
Format: biochemical
Protocol: The assay of Example 3 was used to determine the IC50's of the compounds. Other standard complement assays are also available.
Example 3. Human C1s Enzyme Assay
Human complement C1s enzyme (purified from human serum, Complement Technology, Inc.) at 1.16 nM final concentration was incubated with test compound at various concentrations for 5 min at room temperature in 50 mM Tris, 1 M NaCl, pH 7.5. A synthetic substrate Z-L-Lys-SBzl and DTNB (Ellman's reagent) were added to final concentrations of 100 μM each. Absorbance at 405 nm (A405) was recorded at 30 second intervals for 30 min using a microplate spectrophotometer. IC50 values were calculated by nonlinear regression of complement C1s reaction rates as a function of test compound concentration.
`COc1ccc(CNC(=O)[C@@H]2C[C@]3(C)C[C@@H]3N2C(=O)CNC(=O)c2ccc(Oc3ccccc3)cc2)cc1` [Compound 43, (1S,3S,5S)-N-(4-methoxybenzyl)-5-methyl-2-((4-phenoxy-benzoyl)-glycyl)-2-azabicyclo[3.1.0]hexane-3-carboxamide] gave an IC50 of over 1000 nM. In the case of `C[C@@]12C[C@@H]1N(C(=O)CNC(=O)CCCOc1ccccc1)[C@H](C(=O)NCc1cc(C(=N)N)cs1)C2` [Compound 44, (1S,3S,5S)-N-((4-carbamimidoylthiophen-2-yl)methyl)-5-methyl-2-((4-phenoxy-butanoyl)glycyl)-2-azabicyclo[3.1.0]hexane-3-carboxamide], the IC50 is reported as under 100 nM. `CS[C@@H]1C[C@@H](C(=O)NCc2cc(C(=N)N)cs2)N(C(=O)CNC(=O)c2ccc(Oc3ccccc3)cc2)C1` [Compound 45, (2S,4R)-N-((4-carbamimidoylthiophen-2-yl)methyl)-4-(methylthio)-1-((4-phenoxy-benzoyl)glycyl)pyrrolidine-2-carboxamide] was tested, and the IC50 was under 100 nM. Molecule `CS(=O)(=O)[C@@H]1C[C@@H](C(=O)NCc2cc(C(=N)N)cs2)N(C(=O)CNC(=O)c2ccc(Oc3ccccc3)cc2)C1` [Compound 46, (2S,4R)-N-((4-carbamimidoylthiophen-2-yl)methyl)-4-(methylsulfonyl)-1-((4-phenoxybenzoyl)glycyl)pyrrolidine-2-carboxamide] has an IC50 of under 100 nM. With `N=C(N)c1csc(CNC(=O)[C@@H]2C[C@@H](N3CCCC3)CN2C(=O)CNC(=O)c2ccc(Oc3ccccc3)cc2)c1` [Compound 48, (3′R,5'S)-N-((4-carbamimidoylthiophen-2-yl)methyl)-1′-((4-phenoxybenzoyl)glycyl)-[1,3′-bipyrrolidine]-5′-carboxamide] the IC50 was under 100 nM. `N=C(N)c1csc(CNC(=O)[C@@H]2C[C@@H](OCC3CC3)CN2C(=O)CNC(=O)c2ccc(Oc3ccccc3)cc2)c1` [Compound 50, (2S,4R)-N-((4-carbamimidoylthiophen-2-yl)methyl)-4-(cyclopropylmethoxy)-1-((4-phenoxybenzoyl)glycyl)pyrrolidine-2-carboxamide] gave an IC50 of under 100 nM. Molecule `N=C(N)c1csc(CNC(=O)[C@@H]2C[C@H](C(F)F)CN2C(=O)CNC(=O)c2ccc(Oc3ccccc3)cc2)c1` [Compound 51, (2S,4S)-N-((4-carbamimidoylthiophen-2-yl)methyl)-4-(difluoromethyl)-1-((4-phenoxybenzoyl)glycyl)pyrrolidine-2-carboxamide] has an IC50 of under 100 nM. `C[C@@]12C[C@@H]1N(C(=O)CNC(=O)c1ccc(Oc3ccccc3)cc1)[C@H](C(=O)NCCc1cc(C(=N)N)cs1)C2` [Compound 52, (1S,3S,5S)-N-(2-(4-carbamimidoylthiophen-2-yl)ethyl)-5-methyl-2-((4-phenoxy-benzoyl)glycyl)-2-azabicyclo[3.1.0]hexane-3-carboxamide] was tested, and the IC50 was under 100 nM. `C[C@@]12C[C@@H]1N(C(=O)CNC(=O)c1ccc(Oc3ccc(P(C)(=O)O)cc3)cc1)[C@H](C(=O)NCc1cc(C(=N)N)cs1)C2` [Compound 53, (4-(4-((2-((1S,3S,5S)-3-(((4-carbamimidoylthiophen-2-yl)methyl)carbamoyl)-5-methyl-2-azabicyclo[3.1.0]hexan-2-yl)-2-oxoethyl)carbamoyl)phenoxy)phenyl)-(methyl)phosphinic acid] was tested, and the IC50 was 100 to 1000 nM. Molecule `N=C(N)c1csc(CNC(=O)[C@@H]2C[C@@H](C3CCCC3)CN2C(=O)CNC(=O)c2ccc(Oc3ccccc3)cc2)c1` [Compound 54, (2S,4S)-N-((4-carbamimidoylthiophen-2-yl)methyl)-4-cyclopentyl-1-((4-phenoxy-benzoyl)glycyl)pyrrolidine-2-carboxamide] has an IC50 of under 100 nM. For `N=C(N)c1csc(CNC(=O)[C@@H]2CC3(CC3)CN2C(=O)CNC(=O)CCCOc2ccccc2)c1` [Compound 55, (S)-N-((4-carbamimidoylthiophen-2-yl)methyl)-5-((4-phenoxybutanoyl)glycyl)-5-azaspiro[2.4]heptane-6-carboxamide], the IC50 was under 100 nM. Molecule `N=C(N)c1csc(CNC(=O)[C@@H]2C[C@@]3(CN2C(=O)CNC(=O)CCCOc2ccccc2)CC3(F)F)c1` [Compound 56, (3S,6S)-N-((4-carbamimidoylthiophen-2-yl)methyl)-1,1-difluoro-5-((4-phenoxy-butanoyl)glycyl)-5-azaspiro[2.4]heptane-6-carboxamide] has an IC50 of under 100 nM. `N=C(N)c1csc(CNC(=O)[C@@H]2C[C@]3(CN2C(=O)CNC(=O)CCCOc2ccccc2)CC3(F)F)c1` [Compound 57, (3R,6S)-N-((4-carbamimidoylthiophen-2-yl)methyl)-1,1-difluoro-5-((4-phenoxy-butanoyl)glycyl)-5-azaspiro[2.4]heptane-6-carboxamide] gave an IC50 of under 100 nM. In the case of `C[C@@]12C[C@@H]1N(C(=O)CNC(=O)CCOc1ccccc1)[C@H](C(=O)NCc1cc(C(=N)N)cs1)C2` [Compound 58, (1S,3S,5S)-N-((4-carbamimidoylthiophen-2-yl)methyl)-5-methyl-2-((3-phenoxy-propanoyl)glycyl)-2-azabicyclo[3.1.0]hexane-3-carboxamide], the IC50 is reported as under 100 nM. With `N=C(N)c1csc(CNC(=O)[C@@H]2C[C@H](C(F)(F)F)CN2C(=O)CNC(=O)CCCOc2ccccc2)c1` [Compound 59, (2S,4S)-N-((4-carbamimidoylthiophen-2-yl)methyl)-1-((4-phenoxybutanoyl)glycyl)-4-(trifluoromethyl)pyrrolidine-2-carboxamide] the IC50 was under 100 nM. For `N=C(N)c1csc(CNC(=O)[C@@H]2C[C@@H](C(F)(F)F)CN2C(=O)CNC(=O)CCCOc2ccccc2)c1` [Compound 60, (2S,4R)-N-((4-carbamimidoylthiophen-2-yl)methyl)-1-((4-phenoxybutanoyl)glycyl)-4-(trifluoromethyl)pyrrolidine-2-carboxamide], the IC50 was under 100 nM. For `N=C(N)c1csc(CNC(=O)[C@@H]2C[C@@H](C3CCCCC3)CN2C(=O)CNC(=O)c2ccc(Oc3ccccc3)cc2)c1` [Compound 61, (2S,4S)-N-((4-carbamimidoylthiophen-2-yl)methyl)-4-cyclohexyl-1-((4-phenoxy-benzoyl)glycyl)pyrrolidine-2-carboxamide], the IC50 was 100 to 1000 nM. Molecule `N=C(N)c1csc(CNC(=O)[C@@H]2CC(O)(C(F)(F)F)CN2C(=O)CNC(=O)CCCOc2ccccc2)c1` (stereo partly drawn) [Compound 62, (2S)-N-((4-carbamimidoylthiophen-2-yl)methyl)-4-hydroxy-1-((4-phenoxybutanoyl)-glycyl)-4-(trifluoromethyl)pyrrolidine-2-carboxamide] has an IC50 of under 100 nM. In the case of `COC[C@@]12C[C@@H]1N(C(=O)CNC(=O)CCCOc1ccccc1)[C@H](C(=O)NCc1cc(C(=N)N)cs1)C2` [Compound 63, (1S,3S,5R)-N-((4-carbamimidoylthiophen-2-yl)methyl)-5-(methoxymethyl)-2-((4-phenoxybutanoyl)glycyl)-2-azabicyclo[3.1.0]hexane-3-carboxamide], the IC50 is reported as under 100 nM. `Cc1ccc(OCCCC(=O)NCC(=O)N2CC3(C[C@H]2C(=O)NCc2cc(C(=N)N)cs2)OCCO3)cc1` [Compound 64, (S)-N-((4-carbamimidoylthiophen-2-yl)methyl)-7-((4-(p-tolyloxy)butanoyl)glycyl)-1,4-dioxa-7-azaspiro[4.4]nonane-8-carboxamide] gave an IC50 of under 100 nM. With `N=C(N)c1csc(CNC(=O)[C@@H]2CC3(CN2C(=O)CNC(=O)CCCOc2ccc(F)cc2)OCCO3)c1` [Compound 65, (S)-N-((4-carbamimidoylthiophen-2-yl)methyl)-7-((4-(4-fluorophenoxy)butanoyl)glycyl)-1,4-dioxa-7-azaspiro[4.4]nonane-8-carboxamide] the IC50 was under 100 nM. In the case of `N=C(N)c1csc(CNC(=O)[C@@H]2C[C@](F)(CO)CN2C(=O)CNC(=O)CCCOc2ccccc2)c1` [Compound 66, (2S,4R)-N-((4-carbamimidoylthiophen-2-yl)methyl)-4-fluoro-4-(hydroxymethyl)-1-((4-phenoxybutanoyl)glycyl)pyrrolidine-2-carboxamide], the IC50 is reported as under 100 nM. Work on `C[C@@]12C[C@@H]1N(C(=O)CNC(=O)c1ccc(Oc3ccccc3)cc1)[C@H](C(=O)NCc1ccc3onc(N)c3c1)C2` [Compound 67, (1S,3S,5S)-N-((3-aminobenzo[d]isoxazol-5-yl)methyl)-5-methyl-2-((4-phenoxy-benzoyl)glycyl)-2-azabicyclo[3.1.0]hexane-3-carboxamide] yielded an IC50 of over 1000 nM. `C[S@](=N)(=O)[C@@H]1C[C@@H](C(=O)NCc2cc(C(=N)N)cs2)N(C(=O)CNC(=O)c2ccc(Oc3ccccc3)cc2)C1` [Compound 68, (2S,4R)-N-((4-carbamimidoylthiophen-2-yl)methyl)-4-((S)-S-methylsulfonimidoyl)-1-((4-phenoxybenzoyl)glycyl)pyrrolidine-2-carboxamide] was tested, and the IC50 was under 100 nM.

From patent US20250171423A1, “PHARMACEUTICAL COMPOUNDS FOR THE TREATMENT OF COMPLEMENT MEDIATED DISORDERS” (Achillion Pharmaceuticals, Inc., priority 2020, published 2025)
